Usually pIC50 stands for the IC50 on a negative log10 scale, so that one unit is a factor of ten.

This passage reports IC50 results from US11078204B2, “Heterocyclic derivatives as PI3K inhibitors” (Incyte Corporation, priority 2018, dated 2021).

Each structure is given as a SMILES string. pIC50: −log10 of the molar value. Where a name gives a salt, the structure may show the parent alone.

In test [1] the target is PI3Kγ (p110γ) Recombinant Human Protein (Homo sapiens (Human), UniProt P48736). The experiment in a line: PI3K-γ Scintillation Proximity Assay. As to conditions: 20 μM PIP2, 2 μM ATP, 13 nM PI3Kγ, 120 min. The test is classed as biochemical. From the text:
Example B. PI3K-γ Scintillation Proximity Assay
[γ-^33P]ATP (10 mCi/mL) and Wheat Germ Agglutinin (WGA) YSi SPA Scintillation Beads was purchased from Perkin Elmer (Waltham, Mass.). Lipid kinase substrate, D-myo-Phosphatidylinositol 4,5-bisphosphate (PtdInS(4,5)P2)D (+)-sn-1,2-di-O-octanoylglyceryl, 3-O-phospho linked (PIP2), CAS 204858-53-7, was purchased from Echelon Biosciences (Salt Lake City, Utah). PI3Kγ (p110γ) Recombinant Human Protein was purchased from Life technology (Grand Island, N.Y.). ATP, MgCl2, DTT, EDTA, MOPS and CHAPS were purchased from Sigma Aldrich (St. Louis, Mo.).
(§1) The kinase reaction was conducted in polystyrene 384-well Greiner Bio-one white plate from Thermo Fisher Scientific in a final volume of 25 μL. Inhibitors were first diluted serially in DMSO and added to the plate wells before the addition of other reaction components. The final concentration of DMSO in the assay was 2%. The PI3Kγ assay was carried out at room temperature in 20 mM MOPS, pH 6.7, 10 mM MgCl2, 5 mM DTT and CHAPS 0.03%. Reactions were initiated by the addition of ATP, the final reaction mixture consisted of 20 μM PIP2, 2 μM ATP, 0.5 μCi [γ-^33p]ATP, 13 nM PI3Kγ. Reactions were incubated for 120 min and terminated by the addition of 40 μL SPA beads suspended in quench buffer: 163 mM potassium phosphate pH 7.8, 20% glycerol, 25 mM EDTA. The final concentration of SPA beads is 1.0 mg/mL. After the plate sealing, plates were shaken overnight at room temperature and centrifuged at 1500 rpm for 10 min, the radioactivity of the product was determined by scintillation counting on Topcount (PerkinElmer). IC50 determination was performed by fitting the curve of percent of the solvent control activity versus the log of the inhibitor concentration using the GraphPad Prism 6.0 software.

In test [2] the target is PI3Kδ (p110δ/p85α) Recombinant Human Protein (Homo sapiens (Human), UniProt O00329). The test is described as follows: PI3Kδ Scintillation Proximity Assay. The note with it: 20 μM PIP2, 2 μM ATP, 3.4 nM PI3Kδ, 120 min. The test is classed as biochemical.
Chain of PI3Kδ (p110δ/p85α) Recombinant Human Protein (O00329 whole entry): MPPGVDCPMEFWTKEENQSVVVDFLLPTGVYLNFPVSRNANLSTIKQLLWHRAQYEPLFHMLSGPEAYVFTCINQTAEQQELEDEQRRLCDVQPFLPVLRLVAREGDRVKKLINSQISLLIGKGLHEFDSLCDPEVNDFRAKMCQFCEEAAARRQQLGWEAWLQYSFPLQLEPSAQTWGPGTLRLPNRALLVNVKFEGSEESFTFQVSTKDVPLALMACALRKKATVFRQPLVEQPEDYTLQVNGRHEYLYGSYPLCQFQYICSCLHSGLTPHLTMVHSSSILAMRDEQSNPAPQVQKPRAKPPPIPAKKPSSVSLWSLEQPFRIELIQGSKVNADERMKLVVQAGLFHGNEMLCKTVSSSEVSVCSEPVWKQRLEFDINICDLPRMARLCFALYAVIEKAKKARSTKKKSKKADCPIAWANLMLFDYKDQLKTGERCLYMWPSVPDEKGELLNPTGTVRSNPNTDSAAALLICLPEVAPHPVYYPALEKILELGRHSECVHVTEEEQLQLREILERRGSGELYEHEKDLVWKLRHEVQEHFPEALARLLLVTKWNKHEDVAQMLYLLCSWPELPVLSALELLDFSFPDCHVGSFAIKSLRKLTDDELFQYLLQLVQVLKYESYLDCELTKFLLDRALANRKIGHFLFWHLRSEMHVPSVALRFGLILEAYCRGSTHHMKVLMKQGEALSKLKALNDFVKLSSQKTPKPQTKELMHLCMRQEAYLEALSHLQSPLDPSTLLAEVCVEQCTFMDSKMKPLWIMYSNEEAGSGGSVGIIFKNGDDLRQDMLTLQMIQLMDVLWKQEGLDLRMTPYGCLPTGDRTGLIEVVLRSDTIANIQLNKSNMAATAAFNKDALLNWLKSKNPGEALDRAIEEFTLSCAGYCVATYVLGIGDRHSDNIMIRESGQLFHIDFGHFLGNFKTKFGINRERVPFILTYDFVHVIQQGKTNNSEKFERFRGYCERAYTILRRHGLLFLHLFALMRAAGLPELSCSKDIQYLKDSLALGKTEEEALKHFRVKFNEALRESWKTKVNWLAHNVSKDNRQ
Chain of PI3Kδ (p110δ/p85α) Recombinant Human Protein (P27986 whole entry partner): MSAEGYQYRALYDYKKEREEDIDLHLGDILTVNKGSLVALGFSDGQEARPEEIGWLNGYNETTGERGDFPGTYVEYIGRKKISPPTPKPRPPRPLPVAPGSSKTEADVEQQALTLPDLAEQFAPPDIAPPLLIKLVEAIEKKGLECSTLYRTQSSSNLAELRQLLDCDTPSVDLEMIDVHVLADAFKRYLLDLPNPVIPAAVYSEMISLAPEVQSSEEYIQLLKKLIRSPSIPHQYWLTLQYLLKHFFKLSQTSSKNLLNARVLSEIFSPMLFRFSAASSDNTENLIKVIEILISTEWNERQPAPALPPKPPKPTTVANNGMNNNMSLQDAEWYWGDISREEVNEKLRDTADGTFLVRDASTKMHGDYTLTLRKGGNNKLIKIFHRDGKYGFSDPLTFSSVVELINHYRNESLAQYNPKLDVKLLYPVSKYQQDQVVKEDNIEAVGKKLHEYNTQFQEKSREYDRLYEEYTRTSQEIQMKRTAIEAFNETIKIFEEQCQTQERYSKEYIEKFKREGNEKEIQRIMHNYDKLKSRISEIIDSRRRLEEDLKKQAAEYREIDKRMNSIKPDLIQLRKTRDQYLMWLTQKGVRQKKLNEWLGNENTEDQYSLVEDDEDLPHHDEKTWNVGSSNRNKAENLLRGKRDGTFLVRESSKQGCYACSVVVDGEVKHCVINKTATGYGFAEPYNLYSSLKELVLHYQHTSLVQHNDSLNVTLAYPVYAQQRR
Excerpt: Example C. PI3Kδ Scintillation Proximity Assay
[γ-^33P]ATP (10 mCi/mL) and Wheat Germ Agglutinin (WGA) YSi SPA Scintillation Beads was purchased from Perkin Elmer (Waltham, Mass.). Lipid kinase substrate, D-myo-Phosphatidylinositol 4,5-bisphosphate (PtdInS(4,5)P2)D (+)-sn-1,2-di-O-octanoylglyceryl, 3-O-phospho linked (PIP2), CAS 204858-53-7, was purchased from Echelon Biosciences (Salt Lake City, Utah). PI3Kδ (p110δ/p85α) Recombinant Human Protein was purchased from Eurofins (St Charles, Mo.). ATP, MgCl2, DTT, EDTA, MOPS and CHAPS were purchased from Sigma Aldrich (St. Louis, Mo.).
as §1, with “PI3Kδ” for “PI3Kγ”, “[γ-^33P]ATP, 3.4” for “[γ-^33p]ATP, 13”, “PI3Kδ.” for “PI3Kγ.”
A general note: In a scintillation proximity assay essentially only radioactivity close to the scintillant gives light.

Chain of PI3Kγ (p110γ) Recombinant Human Protein (P48736 whole entry): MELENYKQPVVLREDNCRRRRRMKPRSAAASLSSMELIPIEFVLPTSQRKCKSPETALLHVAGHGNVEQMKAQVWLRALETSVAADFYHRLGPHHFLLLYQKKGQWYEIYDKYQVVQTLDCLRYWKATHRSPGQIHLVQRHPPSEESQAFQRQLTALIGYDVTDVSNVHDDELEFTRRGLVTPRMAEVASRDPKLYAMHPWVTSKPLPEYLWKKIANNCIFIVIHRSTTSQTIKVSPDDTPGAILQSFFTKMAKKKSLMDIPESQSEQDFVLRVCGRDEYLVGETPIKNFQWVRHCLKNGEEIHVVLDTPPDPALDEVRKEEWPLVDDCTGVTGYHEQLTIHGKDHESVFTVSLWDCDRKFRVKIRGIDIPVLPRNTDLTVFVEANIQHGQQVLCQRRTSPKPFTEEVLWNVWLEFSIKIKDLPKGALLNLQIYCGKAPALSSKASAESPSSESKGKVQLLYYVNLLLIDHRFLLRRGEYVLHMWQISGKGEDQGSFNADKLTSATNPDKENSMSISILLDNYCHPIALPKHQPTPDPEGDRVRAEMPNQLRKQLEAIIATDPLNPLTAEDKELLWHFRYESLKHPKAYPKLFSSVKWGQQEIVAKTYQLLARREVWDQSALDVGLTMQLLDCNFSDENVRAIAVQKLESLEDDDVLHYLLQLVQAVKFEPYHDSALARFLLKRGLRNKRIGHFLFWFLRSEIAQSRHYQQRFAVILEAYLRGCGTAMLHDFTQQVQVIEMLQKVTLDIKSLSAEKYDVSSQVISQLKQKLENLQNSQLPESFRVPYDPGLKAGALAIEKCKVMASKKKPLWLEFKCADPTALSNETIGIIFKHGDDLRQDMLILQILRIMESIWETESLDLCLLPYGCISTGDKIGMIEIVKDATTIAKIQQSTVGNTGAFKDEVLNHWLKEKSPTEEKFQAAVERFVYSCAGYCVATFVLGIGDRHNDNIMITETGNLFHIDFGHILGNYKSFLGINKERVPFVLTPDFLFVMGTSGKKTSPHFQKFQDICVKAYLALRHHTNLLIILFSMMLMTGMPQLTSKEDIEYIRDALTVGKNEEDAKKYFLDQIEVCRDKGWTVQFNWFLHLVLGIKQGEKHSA

Turning to `Nc1nc(C(F)(F)F)cn2c(-c3ccc4c(c3)CNC4=O)cnc12` [Example 4, 5-(8-Amino-6-(trifluoromethyl)imidazo[1,2-a]pyrazin-3-yl)isoindolin-1-one trifluoroacetate salt], the pIC50 in test [1] and in test [2] was over 5.70 in each case.

Regarding `C[C@@H](C1CC1)N1Cc2cc(-c3cnc4c(N)nc(C(=O)N5CC(O)C5)cn34)ccc2C1=O` (single isomer, unassigned) [Example 30, trifluoroacetate salt], the results for the pIC50 in test [1] and in test [2] were at least 7.00 and at most 5.70, respectively.

Consider `Nc1nc(C(F)(F)F)cn2c(-c3ccc4c(c3)CN(C(CO)C3CC3)C4=O)cnc12` (racemic) [Example 46, 5-(8-Amino-6-(trifluoromethyl)imidazo[1,2-a]pyrazin-3-yl)-2-(1-cyclopropyl-2-hydroxyethyl)isoindolin-1-one, trifluoroacetate salt], for which the values for the pIC50 in test [1] and in test [2] were at least 6.30 and at most 5.70, respectively.

`CC(=O)NCC(C1CC1)N1Cc2cc(-c3cnc4c(N)nc(C(F)(F)F)cn34)ccc2C1=O` (racemic) [Example 44, N-(2-(5-(8-Amino-6-(trifluoromethyl)imidazo[1,2-a]pyrazin-3-yl)-1-oxoisoindolin-2-yl)-2-cyclopropylethyl)acetamide, trifluoroacetate salt]: the pIC50 was over 5.70 in test [1] and at most 5.70 in test [2].

`Nc1nc(C(F)(F)F)cn2c(-c3ccc4c(c3)CN(C(C(=O)O)C3CC3)C4=O)cnc12` (racemic) [Example 47, 2-(5-(8-Amino-6-(trifluoromethyl)imidazo[1,2-a]pyrazin-3-yl)-1-oxoisoindolin-2-yl)-2-cyclopropylacetic acid, trifluoroacetate salt]: the negative-log IC50 (pIC50) in test [1] is over 5.70; in test [2] it was at most 5.70.

As for `CS(=O)(=O)NCC(C1CC1)N1Cc2cc(-c3cnc4c(N)nc(C(F)(F)F)cn34)ccc2C1=O` (racemic) [Example 43, N-(2-(5-(8-Amino-6-(trifluoromethyl)imidazo[1,2-a]pyrazin-3-yl)-1-oxoisoindolin-2-yl)-2-cyclopropylethyl)methanesulfonamide, trifluoroacetate salt], the negative-log IC50 (pIC50) in test [1] was over 5.70; in test [2], at most 5.70.

For `CCN1Cc2cc(-c3cnc4c(N)ncnn34)ccc2C1=O` [Example 10, 5-(4-Aminoimidazo[2,1-f][1,2,4]triazin-7-yl)-2-ethylisoindolin-1-one trifluoroacetate salt], the pIC50 is at least 6.30 in test [1] and over 5.70 in test [2].

Regarding `CC(C)c1cc2cc(-c3cnc4c(N)ncnn34)ccn2n1` [Example 23, 7-(2-Isopropylpyrazolo[1,5-a]pyridin-5-yl)imidazo[2,1-f][1,2,4]triazin-4-amine trifluoroacetate salt], the values for the pIC50 in test [1] and in test [2] were at least 6.30 and at most 5.70, respectively.

With `CC(C1CC1)n1cc2cc(-c3cnc4c(N)ncnn34)ncc2n1` (stereo not shown) [Example 26, 7-(2-(1-Cyclopropylethyl)-2H-pyrazolo[3,4-c]pyridin-5-yl)imidazo[2,1-f][1,2,4]triazin-4-amine, trifluoroacetate], the results for the negative logarithm of the IC50 (pIC50) in test [1] and in test [2] were at least 7.00 and at most 5.70, respectively.

In the case of `CC(C)c1cc2nc(-c3cnc4c(N)ncnn34)ccn2n1` [Example 24, 7-(2-Isopropylpyrazolo[1,5-a]pyrimidin-5-yl)imidazo[2,1-f][1,2,4]triazin-4-amine trifluoroacetate salt], the pIC50 was over 5.70 in test [1] and at most 5.70 in test [2].

`CNC(=O)C(C1CC1)N1Cc2cc(-c3cnc4c(N)nc(C(F)(F)F)cn34)ccc2C1=O` (racemic) [Example 45, 2-(5-(8-Amino-6-(trifluoromethyl)imidazo[1,2-a]pyrazin-3-yl)-1-oxoisoindolin-2-yl)-2-cyclopropyl-N-methylacetamide, trifluoroacetate salt]: the pIC50 in test [1] was over 5.70; in test [2] it was at most 5.70.

With `CC(C)(C)OC(=O)NCC(C1CC1)N1Cc2cc(-c3cnc4c(N)nc(C(F)(F)F)cn34)ccc2C1=O` (racemic) [Example 41, tert-Butyl (2-(5-(8-amino-6-(trifluoromethyl)imidazo[1,2-a]pyrazin-3-yl)-1-oxoisoindolin-2-yl)-2-cyclopropylethyl)carbamate], the pIC50 was at least 6.30 in test [1] and at most 5.70 in test [2].

As for `CC(C1CC1)n1nc2ccc(-c3cnc4c(N)ncnn34)cc2n1` (racemic) [Example 20, 7-(2-(1-cyclopropylethyl)-2H-benzo[d][1,2,3]triazol-5-yl)imidazo[2,1-f][1,2,4]triazin-4-amine trifluoroacetate salt], the pIC50 in test [1] is at least 6.30; in test [2], at most 5.70.

`CC(c1cn2cc(-c3cnc4c(N)ncnn34)ccc2n1)C1CC1` (stereo not shown) [Example 27, 7-(2-(1-Cyclopropylethyl)imidazo[1,2-a]pyridin-6-yl)imidazo[2,1-f][1,2,4]triazin-4-amine trifluoroacetate salt]: the values for the negative-log IC50 (pIC50) in test [1] and in test [2] were at least 7.00 and at most 5.70, respectively.

Consider `CCN1Cc2cc(-c3cnc4c(N)nc(C(F)(F)F)cn34)ccc2C1=O` [Example 9, 5-(8-Amino-6-(trifluoromethyl)imidazo[1,2-a]pyrazin-3-yl)-2-ethylisoindolin-1-one trifluoroacetate salt], for which the figures for the pIC50 in test [1] and in test [2] were at least 6.30 and over 5.70, respectively.

As for `CC(C)c1nc2ccc(-c3cnc4c(N)ncnn34)cn2n1` [Example 21, 7-(2-Isopropyl-[1,2,4]triazolo[1,5-a]pyridin-6-yl)imidazo[2,1-f][1,2,4]triazin-4-amine trifluoroacetate salt], the values for the pIC50 in test [1] and in test [2] were at least 6.30 and at most 5.70, respectively.

`CC(C)c1cn2cc(-c3cnc4c(N)ncnn34)ccc2n1` [Example 22, 7-(2-isopropylimidazo[1,2-a]pyridin-6-yl)imidazo[2,1-f][1,2,4]triazin-4-amine]: the pIC50 in test [1] is at least 6.30; in test [2] it was at most 5.70.

Regarding `CC(c1ccccc1)N1Cc2cc(-c3cnc4c(N)nc(C(F)(F)F)cn34)ccc2C1=O` (racemic) [Example 11, 5-(8-Amino-6-(trifluoromethyl)imidazo[1,2-a]pyrazin-3-yl)-2-(1-phenylethyl)isoindolin-1-one 1.4× trifluoroacetate salt], the pIC50 in test [1] was at least 7.00; in test [2], at most 5.70.

As to `Cc1cc(-c2cnc3c(N)ncnn23)cc2cnn(C(C)C3CC3)c12` (stereo not shown) [Example 19, 7-(1-(1-Cyclopropylethyl)-7-methyl-1H-indazol-5-yl)imidazo[2,1-f][1,2,4]triazin-4-amine trifluoroacetate salt], the pIC50 was at least 6.30 in test [1] and at most 5.70 in test [2].

Turning to `NCC(C1CC1)N1Cc2cc(-c3cnc4c(N)nc(C(F)(F)F)cn34)ccc2C1=O` (racemic) [Example 42, 2-(2-Amino-1-cyclopropylethyl)-5-(8-amino-6-(trifluoromethyl)imidazo[1,2-a]pyrazin-3-yl)isoindolin-1-one, trifluoroacetate salt], the pIC50 in test [1] was over 5.70; in test [2], at most 5.70.
